Measurements reported in paper PMC7997574, “Lead Optimization of Benzoxazolone Carboxamides as Orally Bioavailable and CNS Penetrant Acid Ceramidase Inhibitors” (Journal of Medicinal Chemistry, 2020).

Assay: In vivo pharmacokinetic study in male CD1 mice
Conditions: mouse
Experimental: Male CD1 mice (22–24 g, 6 weeks old, SLAC Laboratory Animal Co. Ltd.) were group-housed in ventilated cages and had free access to water and food. They were maintained under a […] at controlled temperature and relative humidity. All efforts were made to minimize animal suffering and to use the minimal number of animals required to produce reliable results. All procedures were performed in accordance with the Ethical Guidelines on the Protection of Animals Used for Scientific Purposes at the DMPK Group at Shanghai ChemPartner Co., Ltd. 22m was administrated intravenously (i.v.) at 3 mg kg^–1 (vehicle: 100% saline at 0.6 mg mL^–1) via tail vein injection (N = 18) and via oral administration (p.o.) at 10 mg kg^–1 (vehicle: 100% saline at 2.0 mg mL^–1) by oral gavage (N = 18). Sample collection. Samples were collected at 0.25, 0.5, 1, 4, 8, and 24 h. Animals were sacrificed 24 h after 22m administration; plasma, brain, and CSF samples were collected and stored at −80 °C. Blood collection: The animal was restrained manually, and approximately 150 μL of blood/time point was collected into the K2EDTA tube via retro orbital puncture under anesthesia with isoflurane. The blood sample was put on ice and centrifuged to obtain the plasma sample (2000 × g, 5 min under 4 °C) within 15 min and then acidified following 100 μL of plasma + 1.0 μL of formic acid. An aliquot of 20 μL sample (pretreatment with 1% formic acid) was added with 200 μL of IS (propranolol, 40 ng mL^–1) in MeCN. The mixture was vortexed for 5 min and centrifuged at 6000 rpm for 10 min. The 0.5 μL mixture was injected into LC/MS/MS. Brain collection: Brain was removed and immediately homogenized immediately for 2 min with three volumes (v/w) of homogenizing solution (PBS:formic acid = 100:1), and then the solution was stored in tubes under −70 °C until analysis. An aliquot of 20 μL sample was added with 200 μL of MeCN, which contains IS (propranolol, 40 ng mL^–1) for protein precipitation. The mixture was vortexed for 5 min and centrifuged at 6000 rpm for 10 min. The 0.5 μL mixture was injected into LC/MS/MS. CSF collection: A midline incision was made on the neck. The muscle under the skin was cut to expose the cisterna magna. The CSF was collected by capillary. An aliquot of 3 μL sample was added with 90 μL of IS (propranolol, 40 ng mL^–1) in MeCN:H2O = 2:1 (added 1% formic acid). The mixture was vortexed for 5 min and centrifuged at 6000 rpm for 10 min. The 1.5 μL mixture was injected into LC/MS/MS. 22m sample levels were monitored on an LC/MS/MS-19 (API5500, Qtriple) system, using the calibration curve and […] as internal standard. Chromatography was carried out on a Waters BEH C18 column (2.1 × 50 mm, 1.7 μm) at 60 °C, setting a flow rate of 0.60 mL min^–1. Mobile phases were as follows: A = H2O/0.025% formic acid/1 mM NH4OAc and B = MeOH/0.025% formic acid/1 mM NH4OAc. After the initial 0.20 min at 10% of mobile phase B, the percentage of mobile phase B increased at 70% at 0.50 min, reaching steadily 90% in the range of 0.80–1.30 min. Then the system returned to the initial conditions in a single step until 1.80 min. The following parent (m/z)/daughter (m/z) transitions were monitored: 22m: m/z = 332.20/[…] Da; […] (IS): m/z: 260.30/116.10 Da.

[1] = plasma, oral bioavailability, 10 mg kg^–1 p.o.

CC(C)CNC(=O)n1c(=O)oc2cc(C3CCN(C)CC3)ccc21 [22m, N-Isobutyl-6-(1-methyl-4-piperidyl)-2-oxo-1,3-benzoxazole-3-carboxamide]
AUC at 24 h (iv, CSF, 3 mg kg^–1 i.v.): 77.8 ng·h/mL | Cmax at 24 h (iv, CSF, 3 mg kg^–1 i.v.): 71.6 ng/mL | Tmax (iv, CSF, 3 mg kg^–1 i.v.): 0.25 h | half-life at 24 h (iv, CSF, 3 mg kg^–1 i.v.): 0.661 h | AUC at 24 h (iv, brain, 3 mg kg^–1 i.v.): 10100 ng·h/mL | Cmax at 24 h (iv, brain, 3 mg kg^–1 i.v.): 6440 ng/mL | Tmax (iv, brain, 3 mg kg^–1 i.v.): 0.25 h | half-life at 24 h (iv, brain, 3 mg kg^–1 i.v.): 1.01 h | AUC at 24 h (iv, plasma, 3 mg kg^–1 i.v.): 212 ng·h/mL | half-life (iv, plasma, 3 mg kg^–1 i.v.): 1 h | half-life at 24 h (iv, plasma, 3 mg kg^–1 i.v.): 1.26 h | clearance at 24 h (iv, plasma, 3 mg kg^–1 i.v., read-out: Cl (L h^–1 kg^–1) (converted)): 235 mL/min/kg | Vd at 24 h (iv, plasma, 3 mg kg^–1 i.v., read-out: Vdss (L kg^–1)): 12.5 L/kg | bioavailability [1]: 58% | bioavailability at 24 h [1]: 58.3% | AUC at 24 h (po, CSF, 10 mg kg^–1 p.o.): 119 ng·h/mL | Cmax at 24 h (po, CSF, 10 mg kg^–1 p.o.): 52.2 ng/mL | Tmax (po, CSF, 10 mg kg^–1 p.o.): 1 h | half-life at 24 h (po, CSF, 10 mg kg^–1 p.o.): 1.23 h | AUC at 24 h (po, brain, 10 mg kg^–1 p.o.): 14600 ng·h/mL | Cmax at 24 h (po, brain, 10 mg kg^–1 p.o.): 6900 ng/mL | Tmax (po, brain, 10 mg kg^–1 p.o.): 1 h | half-life at 24 h (po, brain, 10 mg kg^–1 p.o.): 1.18 h | AUC at 24 h (po, plasma, 10 mg kg^–1 p.o.): 412 ng·h/mL | Cmax at 24 h (po, plasma, 10 mg kg^–1 p.o.): 216 ng/mL | Tmax at 24 h (po, plasma, 10 mg kg^–1 p.o.): 0.5 h | half-life at 24 h (po, plasma, 10 mg kg^–1 p.o.): 1.03 h
